Assay results as given in patent US20250177473A1, “PEPTIDE REGULATORS OF METABOLISM” (Metabico, Inc., priority 2022, published 2025).

System: C57BL/6 mice on a high-fat diet
Experiment: Glucose tolerance test in mice on high-fat diet (HFD), acute administration
Format: in vivo, mouse
Details: Metformin 250 mg/kg single p.o.
Protocol: A standard laboratory rodent pellet SNIFF RI/M-H V1534-30 (58% carbohydrates, 9% fat, 33% protein, 306 kcal/100 g) was given ad libitum to the control animals. For HFD groups, the high-fat feed was used. For 1 kg of feed, 610 g of ground SNIFF feed and 360 g of melted pork lard were taken, water (˜250 ml, 60-70° C.), 10 g of sodium chloride, 30 g of sodium glutamate were added. The mixture was brewed to a dough consistency, and food granules were formed. Then the granules were dried at 60-70° C. for 10-12 hours. The finished food for consumption was transferred to the animal-keeping area. The prepared food was stored at 4° C. for no more than 7 days. The approximate energy value of the HFD feed was 516 kcal/100 g (45% fat, 35% carbohydrates, 20% protein).
The metabolic syndrome was modeled by keeping animals on a HFD for 16 weeks. The control group was kept on a standard diet (STD) during this period. Animals had free access to feed and water located in the cage lid.
At stage 1 of the study, to replicate the metabolic syndrome, 25 mice were kept on a STD (group 1), 140 mice—on a HFD (groups 2-5). The animals' body weight was monitored weekly. By the end of the 16th week, mice with the maximum gain were selected among the animals kept on a HFD, and four groups of 25 animals were formed.
On the day of the experiment, animals from groups 3-5 were injected with the tested substances: one half of the group (12 or 13 animals) 2 hours before the experiment and the other half—12 hours. Group 1 and 2 (STD control and HFD control) were injected with saline (Table 5).
The administration volume was 10 ml/kg for drugs administered i.p., 6 μl/animal for i.n. administration and 5 ml/kg for drugs administered p.o.
The animals were deprived of food for 12 hours before the glucose tolerance test and euthanasia. Animals had free access to water.
The animals were deprived of food for 12 hours before the test. Baseline glucose level was measured at the end of fasting (0 min time point) in the blood drop taken from the tip of the tail by incision (with a needle) of the tail vein. The test substances were administered according to the treatment group. Half of the animals received drug injections 2 hours, and the other half—12 hours before the test. The glucose concentration in the blood was determined 15, 30, 60, 120 minutes after i.p. 40% glucose solution administration in a dose of […] with Satellite Express (Elta, Russia) test system.

CN(C)C(=N)N=C(N)N [Metformin]
AUC of glucose in GTT (2 h post-treatment): 1808 ± 131 mmol/L/min | glucose concentration in GTT (2 h post-treatment, 0 min (basal)): 7.2 ± 0.374 mmol/L | glucose concentration in GTT (2 h post-treatment, 60 min after glucose): 15.55 ± 1.46 mmol/L | glucose concentration in GTT (2 h post-treatment, 120 min after glucose): 10.08 ± 0.875 mmol/L | AUC of glucose in GTT (12 h post-treatment): 1857 ± 149 mmol/L/min | glucose concentration in GTT (12 h post-treatment, 0 min): 7.0 ± 0.7 mmol/L | glucose concentration in GTT (12 h post-treatment, 60 min after glucose): 15.7 ± 1.8 mmol/L | glucose concentration in GTT (12 h post-treatment, 120 min after glucose): 11.2 ± 1.4 mmol/L
